Experimental data as given in patent US11739098B2 (BRISTOL-MYERS SQUIBB COMPANY, priority 2017, dated 2023).

Columns and labels:
Assay type in all cases: cell-based
human TLR8 = biological target: T1, human TLR8 (Homo sapiens, UniProt Q9NR97); experiment: TLR8 inhibition reporter assay (HEK-Blue cells, SEAP reporter, R848 stimulation); conditions: HEK-Blue cells overexpressing human TLR8, SEAP reporter, R848 15.9 μM
T1 construct: host or cells: HEK-Blue cells (HEK293-derived reporter line)
T1 sequence (Q9NR97 27-1041): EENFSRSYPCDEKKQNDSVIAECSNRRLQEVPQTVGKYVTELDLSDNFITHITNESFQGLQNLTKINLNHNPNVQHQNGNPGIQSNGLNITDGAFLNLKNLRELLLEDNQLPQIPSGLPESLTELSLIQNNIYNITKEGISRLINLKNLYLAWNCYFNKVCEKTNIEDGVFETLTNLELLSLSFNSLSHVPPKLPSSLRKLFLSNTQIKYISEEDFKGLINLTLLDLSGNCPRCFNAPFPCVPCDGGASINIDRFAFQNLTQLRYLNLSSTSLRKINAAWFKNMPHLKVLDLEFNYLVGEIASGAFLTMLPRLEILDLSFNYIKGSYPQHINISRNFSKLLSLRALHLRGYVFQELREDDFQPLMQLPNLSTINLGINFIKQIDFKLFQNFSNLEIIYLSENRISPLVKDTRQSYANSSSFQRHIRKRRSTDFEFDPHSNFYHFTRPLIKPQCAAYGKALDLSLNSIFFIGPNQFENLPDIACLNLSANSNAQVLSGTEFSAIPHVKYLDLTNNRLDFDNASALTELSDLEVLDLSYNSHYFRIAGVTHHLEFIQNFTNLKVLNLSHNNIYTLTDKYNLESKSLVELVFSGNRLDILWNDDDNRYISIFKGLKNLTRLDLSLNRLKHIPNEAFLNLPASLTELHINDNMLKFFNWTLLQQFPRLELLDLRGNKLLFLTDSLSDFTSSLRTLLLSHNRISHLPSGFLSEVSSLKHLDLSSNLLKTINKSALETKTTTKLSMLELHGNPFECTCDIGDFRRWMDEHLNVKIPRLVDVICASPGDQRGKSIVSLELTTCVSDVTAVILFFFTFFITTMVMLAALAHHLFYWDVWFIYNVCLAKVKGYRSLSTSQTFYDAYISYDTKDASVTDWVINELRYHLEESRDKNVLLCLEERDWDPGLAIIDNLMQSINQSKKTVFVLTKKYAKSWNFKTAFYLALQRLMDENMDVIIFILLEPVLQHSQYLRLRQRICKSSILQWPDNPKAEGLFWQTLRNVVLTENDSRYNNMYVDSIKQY
Outline: (§1)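 Agonists (final): TLR7 gardiquimod 7.5 μM; TLR8 R848 15.9 μM; TLR9 ODN2006 5 nM. HEK-Blue reporter cells, 30 min RT compound pre-incubation, 0.05 nM–50 μM dose range, 22 h at 37 °C, colorimetric SEAP detection medium. % inhibition relative to agonist+DMSO and known-inhibitor wells.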

human TLR7 = biological target: T2, human TLR7 (Homo sapiens, UniProt Q9NYK1); experiment: TLR7 inhibition reporter assay (HEK-Blue cells, SEAP reporter, gardiquimod stimulation); conditions: HEK-Blue cells overexpressing human TLR7, SEAP reporter, gardiquimod 7.5 μM
T2 construct: host or cells: HEK-Blue cells (HEK293-derived reporter line)
T2 sequence (Q9NYK1 27-1049): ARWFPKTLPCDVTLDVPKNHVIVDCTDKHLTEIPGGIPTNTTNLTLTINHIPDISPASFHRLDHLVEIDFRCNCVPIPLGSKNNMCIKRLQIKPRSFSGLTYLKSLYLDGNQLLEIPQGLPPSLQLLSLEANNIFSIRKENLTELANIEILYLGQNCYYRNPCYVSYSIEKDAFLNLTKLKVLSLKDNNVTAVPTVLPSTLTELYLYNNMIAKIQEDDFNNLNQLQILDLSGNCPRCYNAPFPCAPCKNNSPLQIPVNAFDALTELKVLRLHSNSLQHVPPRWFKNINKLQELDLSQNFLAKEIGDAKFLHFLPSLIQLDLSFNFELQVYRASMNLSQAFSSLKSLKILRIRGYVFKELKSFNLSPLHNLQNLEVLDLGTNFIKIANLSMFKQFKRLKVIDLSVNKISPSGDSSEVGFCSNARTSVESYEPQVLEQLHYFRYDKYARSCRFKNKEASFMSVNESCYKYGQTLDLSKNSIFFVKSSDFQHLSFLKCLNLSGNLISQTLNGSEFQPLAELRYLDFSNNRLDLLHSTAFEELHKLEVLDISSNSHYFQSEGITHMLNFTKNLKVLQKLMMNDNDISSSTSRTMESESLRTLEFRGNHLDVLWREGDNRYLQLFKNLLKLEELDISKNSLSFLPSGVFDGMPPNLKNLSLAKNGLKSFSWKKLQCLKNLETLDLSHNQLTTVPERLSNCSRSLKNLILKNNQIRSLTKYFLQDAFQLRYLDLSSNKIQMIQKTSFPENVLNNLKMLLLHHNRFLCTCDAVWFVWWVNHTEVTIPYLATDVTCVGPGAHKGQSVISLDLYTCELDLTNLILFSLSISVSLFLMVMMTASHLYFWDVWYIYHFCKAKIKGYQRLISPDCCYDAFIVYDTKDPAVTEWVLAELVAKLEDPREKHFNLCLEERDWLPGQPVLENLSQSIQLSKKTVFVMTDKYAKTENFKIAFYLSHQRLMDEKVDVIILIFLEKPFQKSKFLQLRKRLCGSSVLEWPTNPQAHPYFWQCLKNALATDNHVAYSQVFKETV
Outline: as §1

human TLR9 = biological target: T3, human TLR9 (Homo sapiens, UniProt Q9NR96); experiment: TLR9 inhibition reporter assay (HEK-Blue cells, SEAP reporter, ODN2006 stimulation); conditions: HEK-Blue cells overexpressing human TLR9, SEAP reporter, ODN2006 5 nM
T3 construct: host or cells: HEK-Blue cells (HEK293-derived reporter line)
T3 sequence (Q9NR96 26-1032): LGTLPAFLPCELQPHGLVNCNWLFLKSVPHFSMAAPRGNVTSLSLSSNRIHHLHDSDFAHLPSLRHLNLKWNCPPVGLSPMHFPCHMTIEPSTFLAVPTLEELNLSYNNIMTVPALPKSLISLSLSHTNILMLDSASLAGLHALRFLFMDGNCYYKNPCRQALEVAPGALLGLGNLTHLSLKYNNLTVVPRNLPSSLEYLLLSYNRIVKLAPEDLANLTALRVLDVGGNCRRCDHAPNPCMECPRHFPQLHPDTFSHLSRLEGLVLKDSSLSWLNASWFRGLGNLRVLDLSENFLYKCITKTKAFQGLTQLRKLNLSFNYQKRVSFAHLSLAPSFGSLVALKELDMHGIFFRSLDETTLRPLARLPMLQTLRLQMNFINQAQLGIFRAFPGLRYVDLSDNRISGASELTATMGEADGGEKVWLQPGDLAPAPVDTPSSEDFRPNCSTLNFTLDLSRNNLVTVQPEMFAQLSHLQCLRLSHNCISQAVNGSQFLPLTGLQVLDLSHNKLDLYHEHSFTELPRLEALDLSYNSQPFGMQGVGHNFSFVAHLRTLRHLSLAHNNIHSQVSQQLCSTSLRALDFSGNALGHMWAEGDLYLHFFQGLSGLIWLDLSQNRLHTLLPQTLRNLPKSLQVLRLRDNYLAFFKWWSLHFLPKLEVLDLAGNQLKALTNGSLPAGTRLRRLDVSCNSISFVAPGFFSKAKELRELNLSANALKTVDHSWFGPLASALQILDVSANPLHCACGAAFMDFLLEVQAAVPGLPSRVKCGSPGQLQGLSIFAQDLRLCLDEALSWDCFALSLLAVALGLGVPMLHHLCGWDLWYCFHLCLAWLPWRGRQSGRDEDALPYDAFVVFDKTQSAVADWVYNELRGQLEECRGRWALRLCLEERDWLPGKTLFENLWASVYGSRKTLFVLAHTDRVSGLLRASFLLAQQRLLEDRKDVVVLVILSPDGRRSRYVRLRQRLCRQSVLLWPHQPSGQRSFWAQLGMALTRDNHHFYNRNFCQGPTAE
Outline: as §1

Compound	IC50 (human TLR8) [µM]	IC50 (human TLR7) [µM]	IC50 (human TLR9) [µM]
CCc1c(-c2ccnc3[nH]ncc23)[nH]c2ccc(C3CCN(Cc4cocn4)CC3)cc12 [Example 920, 4-((4-(3-ethyl-2-(1H-pyrazolo[3,4-b]pyridin-4-yl)-1H-indol-5-yl)piperidin-1-yl)methyl)oxazole]	< 0.1	0.1 to 1	1 to 50
Cc1cc(-c2[nH]c3ccc(C4CCN(C5COC5)CC4)cc3c2C(C)C)cc2nccn12 [Example 711, 7-(3-isopropyl-5-(1-(oxetan-3-yl)piperidin-4-yl)-1H-indol-2-yl)-5-methylimidazo[1,2-a]pyridine]	0.1 to 1	0.1 to 1	1 to 50
CCc1c(-c2ccnc3[nH]ncc23)[nH]c2ccc(C3CCN(C4CCN(C(C)C)CC4)CC3)cc12 [Example 824, 4-(3-ethyl-5-(1′-isopropyl-[1,4′-bipiperidin]-4-yl)-1H-indol-2-yl)-1H-pyrazolo[3,4-b]pyridine]	< 0.1	< 0.1	< 0.1
CC(CN(C)C)CN1CCC(c2ccc3[nH]c(-c4ccnc5[nH]ncc45)c(C(C)C)c3c2)CC1 (stereo not drawn) [Example 846, 3-(4-(3-isopropyl-2-(1H-pyrazolo[3,4-b]pyridin-4-yl)-1H-indol-5-yl)piperidin-1-yl)-N,N,2-trimethylpropan-1-amine]	< 0.1	< 0.1	0.1 to 1
CC(C)c1c(-c2ccc(C#N)c3[nH]ncc23)[nH]c2ccc(C3CCNCC3)cc12 [Example 235, 4-(3-isopropyl-5-(piperidin-4-yl)-1H-indol-2-yl)-1H-indazole-7-carbonitrile]	1 to 50	1 to 50	1 to 50
CNC(=O)CN1CCC(c2ccc3[nH]c(-c4cc(C(F)(F)F)c5nccn5c4)c(C(C)C)c3c2)CC1 [Example 373, 2-(4-(3-isopropyl-2-(8-(trifluoromethyl)imidazo[1,2-a]pyridin-6-yl)-1H-indol-5-yl)piperidin-1-yl)-N-methylacetamide]	< 0.1	< 0.1	1 to 50
Cc1cc(-c2[nH]c3ccc(C4CCNCC4)cc3c2C(C)C)nc2scnc12 [Example 101, 5-(3-isopropyl-5-(piperidin-4-yl)-1H-indol-2-yl)-7-methylthiazolo[5,4-b]pyridine]	< 0.1	< 0.1	1 to 50
Cc1cc(-c2[nH]c3ccc(C4CCN(C5COC5)CC4)cc3c2C(C)C)c2ccccc2n1 [Example 725, 4-(3-isopropyl-5-(1-(oxetan-3-yl)piperidin-4-yl)-1H-indol-2-yl)-2-methylquinoline]	0.1 to 1	< 0.1	1 to 50
CCc1c(-c2ccnc3[nH]ncc23)[nH]c2ccc(C3CCN(Cc4csc(C(C)C)n4)CC3)cc12 [Example 859, 4-((4-(3-ethyl-2-(1H-pyrazolo[3,4-b]pyridin-4-yl)-1H-indol-5-yl)piperidin-1-yl)methyl)-2-isopropylthiazole]	0.1 to 1	0.1 to 1	1 to 50
CC(C)c1c(-c2ccc3ncsc3c2)[nH]c2ccc(C3CCNCC3)cc12 [Example 9, 6-(3-isopropyl-5-(piperidin-4-yl)-1H-indol-2-yl) benzo[d]thiazole]	< 0.1	< 0.1	1 to 50
CC(C)c1c(-c2ccnc3[nH]ncc23)[nH]c2ccc(C3CCN(C(=O)CCC(=O)N(C)C)CC3)cc12 [Example 613, 4-(4-(3-isopropyl-2-(1H-pyrazolo[3,4-b]pyridin-4-yl)-1H-indol-5-yl)piperidin-1-yl)-N,N-dimethyl-4-oxobutanamide]	0.1 to 1	0.1 to 1	> 50
CC(C)c1c(-c2c[nH]c3ncccc23)[nH]c2ccc(C3CCNCC3)cc12 [Example 17, 3-(3-isopropyl-5-(piperidin-4-yl)-1H-indol-2-yl)-1H-pyrrolo[2,3-b]pyridine]	< 0.1	< 0.1	0.1 to 1
CNC(=O)CN1CCC(c2ccc3[nH]c(-c4cc(OC)n5nc(C)nc5c4)c(C(C)C)c3c2)CC1 [Example 347, 2-(4-(3-isopropyl-2-(5-methoxy-2-methyl-[1,2,4]triazolo[1,5-a]pyridin-7-yl)-1H-indol-5-yl)piperidin-1-yl)-N-methylacetamide]	< 0.1	< 0.1	1 to 50
CCOc1cc(-c2[nH]c3ccc(C4CCN(C(=O)CN(C)C)CC4)cc3c2C(C)C)cc2ncnn12 [Example 498, 2-(dimethylamino)-1-(4-(2-(5-ethoxy-[1,2,4]triazolo[1,5-a]pyridin-7-yl)-3-isopropyl-1H-indol-5-yl)piperidin-1-yl)ethan-1-one]	< 0.1	< 0.1	0.1 to 1
COc1ncc(CN2CCC(c3ccc4[nH]c(-c5ccnc6[nH]ncc56)c(C(C)C)c4c3)CC2)cn1 [Example 909, 4-(3-isopropyl-5-(1-((2-methoxypyrimidin-5-yl)methyl)piperidin-4-yl)-1H-indol-2-yl)-1H-pyrazolo[3,4-b]pyridine]	< 0.1	< 0.1	1 to 50
